Test [1] concerns Staphylococcus aureus. The experiment in a line: Antimicrobial activity against heterogeneous vancomycin-intermediate Staphylococcus aureus ATCC 700698 after 24 hrs by broth microdilution method. The following applies: ATCC 700698, 24 h. Format: functional.
Test [2] has as its system Staphylococcus aureus. The experiment in a line: Antimicrobial activity against methicillin-resistant Staphylococcus aureus ATCC 43300 after 24 hrs by broth microdilution method. To be noted: ATCC 43300, 24 h. It counts as functional.
For test [3], the system named is Staphylococcus aureus. The experiment in a line: Antimicrobial activity against vancomycin-intermediate Staphylococcus aureus ATCC 700699 after 24 hrs by broth microdilution method. The following applies: ATCC 700699, 24 h. It counts as functional.
Test [4] deals with Klebsiella pneumoniae. The experiment in a line: Antimicrobial activity against Klebsiella pneumoniae ATCC 13883. Format: functional, organism-based.
The subject of test [5] is Acinetobacter baumannii. The experiment in a line: Antimicrobial activity against Acinetobacter baumannii ATCC 19606. Format: functional.
The subject of test [6] is Pseudomonas aeruginosa. The test is described as follows: Antimicrobial activity against Pseudomonas aeruginosa ATCC 27853. Format: functional, organism-based.
Test [7] concerns Staphylococcus aureus. The experiment in a line: Antimicrobial activity against methicillin-resistant Staphylococcus aureus ATCC 43300 at 10 ug/disc after 24 hrs by disc diffusion assay. Format: functional. The following applies: ATCC 43300, 24 h, read-out: DIZ.
Test [8] has as its system Staphylococcus aureus. The test is described as follows: Antimicrobial activity against methicillin-resistant Staphylococcus aureus ATCC 43300 at 1 mg/disc after 24 hrs by disc diffusion assay. It counts as functional.

Consider 22 molecules from ChEMBL document CHEMBL3217633, “Simplified platensimycin analogues as antibacterial agents” (2012).

Converted amounts (≈) assume the structure as drawn. The source made the active and inactive calls. The calls are words filed in the database; no cut-off is given here.

Regarding `CC12C[C@@]34C=CC(=O)[C@@](C)(CCC(=O)Nc5c(O)ccc(C(=O)O)c5O)C3[C@H](CC1C4)O2` (stereo partly drawn) [PLATENSIMYCIN], the MIC in test [1], in test [2] and in test [3] was 2 µg/mL (≈ 4.53 µM) throughout. In addition, the result in test [4], in test [5] and in test [6] was inactive. Moreover, the zone of inhibition at 10 µg/disc in test [7] is 30 mm.
Consider `CC(=O)NC[C@H]1CN(c2ccc(N3CCOCC3)c(F)c2)C(=O)O1` [LINEZOLID], for which the zone of inhibition at 10 µg/disc in test [7] turned out to be 26 mm.
As for `CCCC(=O)Nc1cccc(C(=O)O)c1O`, the zone of inhibition at 10 µg/disc in test [7] was found to be 0 mm.
`CCC(=O)Nc1c(O)ccc(C(=O)O)c1O`: in test [7], the zone of inhibition at 10 µg/disc worked out at 0 mm.
With `O=C(O)c1ccc(O)c(NC(=O)C23CC4CC(CC(C4)C2)C3)c1O`, in test [7], the zone of inhibition at 10 µg/disc came to 0 mm. Also, the “diameter of the inhibition zone (DIZ)” value in test [8] was determined as 11 mm.
Regarding `O=C(O)c1ccc(O)c(NC(=O)C2CCCCC2)c1O`, the zone of inhibition at 10 µg/disc in test [7] was determined as 0 mm.
On the same count and under the same terms, to `CC(C)(C)C(=O)Nc1c(O)ccc(C(=O)O)c1O` belongs 0 mm.
Take `CC(C)C(=O)Nc1c(O)ccc(C(=O)O)c1O`: the zone of inhibition at 10 µg/disc in test [7] was found to be 0 mm.
With `CC12CC[C@@](C(=O)Nc3cccc(C(=O)O)c3O)(OC1=O)C2(C)C`, in test [7], the zone of inhibition at 10 µg/disc turned out to be 0 mm. The “diameter of the inhibition zone (DIZ)” value in test [8] came to 21 mm.
Regarding `O=C(O)c1cccc(NC(=O)C2CCCCC2)c1O`, the zone of inhibition at 10 µg/disc in test [7] amounted to 0 mm.
For `CCC1(C(=O)Nc2cccc(C(=O)O)c2O)CCCCC1`, the zone of inhibition at 10 µg/disc in test [7] was determined as 0 mm. Moreover, the “diameter of the inhibition zone (DIZ)” value in test [8] stood at 10 mm.
Taken in the same sequence, the figures for `CC12CC[C@@](C(=O)Nc3c(O)ccc(C(=O)O)c3O)(OC1=O)C2(C)C` were 0 mm and 22 mm.
Take `CC12CC[C@](C(=O)Nc3c(O)ccc(C(=O)O)c3O)(OC1=O)C2(C)C`: in test [7], the zone of inhibition at 10 µg/disc amounted to 18 mm. Also, the “diameter of the inhibition zone (DIZ)” value in test [8] amounted to 38 mm.
For `CCC1(C(=O)Nc2c(O)ccc(C(=O)O)c2O)CCCCC1`, the zone of inhibition at 10 µg/disc in test [7] is 0 mm. The “diameter of the inhibition zone (DIZ)” value in test [8] was 10 mm.
For the molecule `CC(C)(C)C(=O)Nc1cccc(C(=O)O)c1O`, in test [7], the zone of inhibition at 10 µg/disc was found to be 0 mm.
The same measure, in the same setting: to `CCC(=O)Nc1cccc(C(=O)O)c1O` belongs 0 mm; to `CC(C)C(=O)Nc1cccc(C(=O)O)c1O`, 0 mm.
The same measure, in the same setting: to `O=C(O)c1cccc(NC(=O)C2CCCC2)c1O` belongs 0 mm.
Consider `CCCC(=O)Nc1c(O)ccc(C(=O)O)c1O`, for which, in test [7], the zone of inhibition at 10 µg/disc is 0 mm. The “diameter of the inhibition zone (DIZ)” value in test [8] stood at 20 mm.
Taken in the same sequence, the figures for `O=C(O)c1ccc(O)c(NC(=O)C2CCCC2)c1O` were 0 mm and 8 mm.
Consider `O=C(O)c1cccc(NC(=O)C23CC4CC(CC(C4)C2)C3)c1O`, for which, in test [7], the zone of inhibition at 10 µg/disc was 0 mm. In addition, in test [8], the “diameter of the inhibition zone (DIZ)” value was found to be 11 mm.
The like results for `CC12CC[C@](C(=O)Nc3cccc(C(=O)O)c3O)(OC1=O)C2(C)C` were, in that order, 0 mm and 14 mm.
